# According to US10577362B2, “Substituted 2, 4-diamino-quinoline derivatives for use in the treatment of proliferative diseases” (GENOSCIENCE PHARMA, priority 2016, dated 2020):
# Assays:
# [1] = test system: HepG2 (hepatocellular carcinoma) cell line; experiment: CellTiter-Glo luminescent cell viability assay, HepG2; assay type: cell-based, human; settings: Homo sapiens; for viability at 4 µM / viability at 10 µM: HepG2, HepG, 72 h; for viability at 4 µM: compound at 4 μM; for viability at 10 µM: compound at 10 μM; for EC50: HepG2 cell line, 72 h incubation, CellTiter-Glo, read-out: EC50, growth inhibition of HepG2
# Method in brief: (§1)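 EC50 is the concentration cutting CellTiter-Glo luminescence to half that of H2O- or DMSO-treated controls after 72 h compound exposure, with each point in at least duplicate. HepG2, Huh7 and PANC-1 were seeded the night before; MOLM-14 1 h prior; all cultured with 10% FBS, 37 °C, 5% CO2.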
# [2] = test system: PANC-1 (prancreatic carcinoma) cell line; experiment: CellTiter-Glo luminescent cell viability assay, PANC-1; assay type: cell-based; settings: Homo sapiens; for viability at 4 µM: PANC-1, 4 μM; for viability at 4 µM / viability at 10 µM: 72 h, % of signal of diluent-treated cultures; for viability at 10 µM: PANC-1, 10 μM; for EC50: PANC-1 cell line, 72 h incubation, CellTiter-Glo, read-out: EC50 (growth inhibition assay of PANC-1 cell line)
# Method in brief: as §1
# [3] = test system: 786-O (renal adenocarcinoma) cell line; experiment: CellTiter-Glo luminescent cell viability assay, 786-O; assay type: cell-based, human; settings: Homo sapiens, 786-0; for viability at 4 µM / viability at 10 µM: 786-O, 72 h; for viability at 4 µM: compound at 4 μM; for viability at 10 µM: compound at 10 μM; for EC50: 786-O cell line, 72 h incubation, CellTiter-Glo, read-out: EC50, growth inhibition of 786-O
# Method in brief: (§2)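 In a 72 h viability assay, compound-treated cells were compared against matched H2O or DMSO diluent controls by luminescence, points in at least duplicate.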
# [4] = test system: Huh7 (hepatocellular carcinoma) cell line; experiment: CellTiter-Glo luminescent cell viability assay, Huh7; assay type: cell-based, human; settings: Homo sapiens, Huh-7; for viability at 4 µM: Huh7, compound at 4 μM; for viability at 4 µM / viability at 10 µM: 72 h; for viability at 10 µM: Huh7, compound at 10 μM; for EC50: Huh7 cell line, 72 h incubation, CellTiter-Glo, read-out: EC50, growth inhibition of Huh7
# Method in brief: as §1
# [5] = test system: MOLM-14 (acute myeloid leukemia) cell line; experiment: CellTiter-Glo luminescent cell viability assay, MOLM-14; assay type: cell-based, human; settings: Homo sapiens; for viability at 4 µM: MOLM-14, compound at 4 μM; for viability at 4 µM / viability at 10 µM: 72 h; for viability at 10 µM: MOLM-14, compound at 10 μM; for EC50: MOLM-14 cell line, 72 h incubation, CellTiter-Glo, read-out: EC50, growth inhibition of MOLM-14
# Method in brief: as §1
# [6] = test system: A375 (malignant melanoma) cell line; experiment: CellTiter-Glo luminescent cell viability assay, A375; assay type: cell-based, human; settings: Homo sapiens, A-375; for viability at 4 µM: A375, compound at 4 μM; for viability at 4 µM / viability at 10 µM: 72 h; for viability at 10 µM: A375, compound at 10 μM; for EC50: A375 cell line, 72 h incubation, CellTiter-Glo, read-out: EC50, growth inhibition of A375
# Method in brief: as §2
# [7] = test system: HCT-116 (colorectal carcinoma) cell line; experiment: CellTiter-Glo luminescent cell viability assay, HCT-116; assay type: cell-based, human; settings: Homo sapiens; for viability at 4 µM: HCT-116, compound at 4 μM; for viability at 4 µM / viability at 10 µM: 72 h; for viability at 10 µM: HCT-116, compound at 10 μM; for EC50: HCT-116 cell line, 72 h incubation, CellTiter-Glo, read-out: EC50, growth inhibition of HCT-116
# Method in brief: as §2
SMILES,viability at 4 µM [1] [%],viability at 10 µM [1] [%],viability at 4 µM [2] [%],viability at 10 µM [2] [%],viability at 4 µM [3] [%],viability at 10 µM [3] [%],viability at 4 µM [4] [%],viability at 10 µM [4] [%],viability at 4 µM [5] [%],viability at 10 µM [5] [%],viability at 4 µM [6] [%],viability at 10 µM [6] [%],viability at 4 µM [7] [%],viability at 10 µM [7] [%],EC50 [1] [µM],EC50 [2] [µM],EC50 [3] [µM],EC50 [4] [µM],EC50 [5] [µM],EC50 [6] [µM],further results
"N#Cc1c(NCc2ccc(Cl)cc2)nc2ccccc2c1N1CCC(Oc2ccccc2)CC1 [Compound 2940CN, 2-(4-chlorobenzylamino)-3-cyano-4-(4-phenoxypiperidin-1-yl)quinoline]",89.7,79.4,103,102,97.1,91.7,97.3,88.9,102,89.1,104,98.3,92.9,82.9,,,,,,,
"Cc1ccc(OC2CCN(c3c(C#N)c(NCc4ccc(Cl)cc4)nc4ccccc34)CC2)cc1 [Compound 2944CN, 2-(4-chlorobenzylamino)-3-cyano-4-[4-(p-tolyloxy)piperidin-1-yl]quinoline]",107,84,111,112,96,95.5,93.9,89,104,92.1,96.9,87.1,32.8,29.1,,,,,,,
"N#Cc1c(NCc2ccc(Cl)cc2)nc2ccccc2c1N1CCCC(N)C1 (stereo not shown) [Compound 3156CN, 2-(4-chlorobenzylamino)-3-cyano-4-(3-aminopiperidin-1-yl)quinoline]",32.6,0.5,102,0.9,77.8,0.6,83,0.6,92.8,0.6,10,0.4,52,0.5,0.5 to 5,5 to 10,0.5 to 5,0.5 to 5,5 to 10,0.5 to 5,EC50 [7]: 0.5 to 5 µM
"CNC1CCCN(c2c(C#N)c(NCc3ccc(Cl)cc3)nc3ccccc23)C1 (stereo not shown) [Compound 3158CN, 2-(4-chlorobenzylamino)-3-cyano-4-[3-(methylamino)piperidin-1-yl]quinoline]",84.6,0.4,107,53.1,88.4,0.5,86.4,0.5,91.5,0.6,70.9,0.3,74.2,0.4,0.5 to 5,5 to 10,5 to 10,5 to 10,5 to 10,0.5 to 5,EC50 [7]: 0.5 to 5 µM
"CC(C)NC1CCCN(c2c(C#N)c(NCc3ccc(Cl)cc3)nc3ccccc23)C1 (stereo not shown) [Compound 3160CN, 2-(4-chlorobenzylamino)-3-cyano-4-[3-(isopropylamino)piperidin-1-yl]quinoline]",62.1,0.5,96.1,1.2,65.2,0.5,80.8,0.5,88.7,0.6,18.2,0.4,57.7,0.4,0.5 to 5,5 to 10,5 to 10,5 to 10,5 to 10,0.5 to 5,EC50 [7]: 0.5 to 5 µM
